Positions of bridges follow the written chain, without caps; N, C: chain ends. Chains are numbered I, II in the order given. No end group written: not given here.
Assays:
[1] = Pharmacokinetics: plasma and CSF concentration by competitive ELISA; assay type: in vivo; settings: rat, single s.c. 10 mg/kg, calculated
Protocol: Biotinylated Ilantide-t (Schafer-N) was administered to adult male Wistar rats subcutaneously (s.c.) at a dose of 10 mg/kg. Twenty minutes, sixty minutes, one hundred forty minutes, five hours and thirty hours after peptide administration, blood samples (approximately 300 μl) were collected from the orbital plexus under fentanyl/droperidol/midazolam anesthesia (0.002%/0.14%/0.014% wt/vol) (Department of Experimental Medicine, University of Copenhagen, Denmark) in ethylenediaminetetraacetic acid–coated tubes (BD, Plymouth, UK), and 50 to 110 U/ml aprotinin (Calbiochem, San Diego, CA, USA) was added immediately to the collected blood. The samples were subsequently centrifuged at 1,500 × g for 15 minutes. Cerebrospinal fluid (CSF) was collected from the cisterna magna 30 minutes after peptide administration as described previously. Plasma and CSF samples were stored at -80°C.
The concentrations of Ilantide-t in plasma and CSF samples were measured by performing a competitive ELISA on amino 96-well plates (Nunc). […] Color development was terminated by the addition of 2 M H2SO4 (100 μl/well), and absorbance was read at 450 nm on a Wallac Victor 1420 multilabel counter (PerkinElmer, Hvidovre, Denmark). Peptide concentrations in the samples were determined using a standard curve. […]

[2] = test system: Aβ25–35-induced social memory deficit; assay type: in vivo; settings: rat, Aβ25–35 15 μg i.c.v., Ilantide-t 10 mg/kg s.c., third trial
Protocol: Aggregates of Aβ25-35 (Bachem AG, Weil am Rhein, Germany) were prepared by incubating the peptides at a concentration of 3 μg/μl in sterile water for 4 days at 37°C. Subsequently, 5 μl of aggregated Aβ25-35 were injected intracerebroventricularly (1.2 μl/min) with a 10-μl Hamilton syringe using the following coordinates: 0.8 mm posterior to the bregma, 1.5 mm lateral to the sagittal suture and 3.8 mm beneath the surface of the brain. The procedure was performed while the animals were under anesthesia (i.p. fentanyl-fluanisone/midazolam at 0.3 ml/100-g animal; that is, 23.6 μg of fentanyl, 0.75 mg of fluanisone and 375 μg midazolam per 100-g animal). Social memory in animals reflects the ability of individuals to recognize conspecifics as familiar or unfamiliar. […] During each trial, the investigative behavior of the adult toward the juvenile (that is, licking, sniffing and chewing the fur of the juvenile) was monitored with a video camera and scored by an observer who was blinded to the treatment of the animals. […] The time spent investigating a novel juvenile (T3) was measured to confirm that the effect seen with the familiar juvenile was specific to cognition. In this case, RRnew was calculated as T3/(T1 + T3).

[3] = test system: neonatal rat pancreatic islets; assay: IL-1β-induced rat islet cell apoptosis (cell death detection ELISA); assay type: cell-based
Protocol: Neonatal rat islets were isolated from 3- to 6-day-old outbred Wistar rats (Taconic, Ejby, Denmark) as previously described. Islets were precultured and maintained in RPMI 1640 medium (Gibco/Life Technologies) supplemented with 20 mmol/L HEPES buffer, 0.038% (wt/vol) NaHCO3, 100 U/ml penicillin, 100 µg/ml streptomycin and 10% (vol/vol) newborn calf serum (NCS) at 37°C in humidified atmospheric air. Prior to experimentation, the islets were randomly distributed to 24-well dishes and incubated for 2 hours in RPMI 1640 medium supplemented as described above, but with 0.5% (vol/vol) NCS relevant reagents were added as indicated.
For cell death detection, rat islets were incubated with 150 pg/ml IL-1β (BD Pharmingen, San Diego, CA, USA) alone or in combination with various concentrations of Ana and Ilantide for 24 hours at 37°C in humidified atmospheric air. Rat islet cell death was assessed by cell death detection ELISA (Roche, Lund, Sweden) as previously described. As a surrogate measure of nitric oxide production, Griess reagent (1:1 aqueous mixture of 0.1% naphthylethylenediamine hydrochloride and 1% sulfanilamide + 5% H3PO4) was mixed in a 1:1 ratio with 100 μl of supernatant samples to determine the nitrite content in supernatants from the cell death assays described above.
Figure 7 Effect of Ilantide on interleukin 1β-induced rat islet cell apoptosis. Rat pancreatic islets were preincubated for 30 minutes in the absence or presence of various concentrations of anakinra (A), Ilantide-m (B) or Ilantide-t (C) and then exposed to […] interleukin 1β (IL-1β) for 24 hours. Cytokine-induced apoptosis was determined by cell death detection enzyme-linked immunosorbent assay. Apoptosis rates are presented as fold induction compared with untreated control islets (white bars). The data from four independent experiments are presented as mean ± SEM. *P < 0.05 and **P < 0.01 compared with cultures treated with IL-1β alone (one-way analysis of variance followed by Dunnett’s post hoc test).

## I: SGRKSSKMQAKK-NH2 / II: SGRKSSKMQAK / III: SGRKSSKMQA / IV: SGRKSSKMQA (amide I:11-IV:C, I:12-II:C, II:11-III:C; C-terminus assumed) [Ilantide-t]
[1]
  Plasma half-life: approximately 2 hours
[2]
  RRnew (recognition ratio with new juvenile): did not differ from 0.5
[3]; Ilantide-t in high molar excess
  Reduction of IL-1-induced apoptosis relative to the maximal effect of Ana: 1.5 ×
[3]; rat islets, 30 minutes preincubation, 8.68 nM (150 pg/ml) IL-1β, 24 hours, four independent experiments
  Maximal inhibition of IL-1β-induced apoptosis: 93%

From publication PMC3923439, “Anti-inflammatory properties of a novel peptide interleukin 1 receptor antagonist” (Journal of Neuroinflammation, 2014)
